# Measured values published in US10544155B2, “Spirocyclic quinolizine derivatives useful as HIV integrase inhibitors” (MERCK SHARP & DOHME CORP., priority 2015, dated 2020).
# Read-outs that look alike come from different tables or passages of the source.
# System: HIV-1 (NL4-3 strain)
# Assay: Assay for inhibition of HIV replication (MT4-gag-GFP reporter cell line, wild type cell assay, Viking)
# Type: cell-based
# Settings: IP from 4-parameter dose response curve
# Experimental: This assay is a kinetic assay that employs a reporter cell line (MT4-gag-GFP) to quantify the number of new cells infected in each round of replication.
# MT4-GFP cells (250,000 cells/ml) were bulk-infected with HIV-1 (NL4-3 strain) at low multiplicity of infection (MOI) in RPMI+10% FBS for 24 hours. Cells were then washed once in RPMI+10% FBS and resuspended in RPMI+0% or 10% or 100% normal human serum (NHS). Test compounds were serial-diluted in DMSO on ECHO. The infected MT4-GFP cells were added to a 384-well poly-D-lysine coated black plate with clear bottom in which the diluted test compounds were placed. The cells were seeded at 8,000 cells per well and the final DMSO concentration was 0.4%. The infected cells (Green GFP cells) were quantified at both 24 and 48 hours post incubation using Acumen eX3. Viral reproductive ratio (R0) was determined using the number of infected cells at 48 hours divided by the number of infected cells at 24 hours. Percent viral growth inhibition was calculated by [1−(R−Rtripledrug)/(RDMSO−Rtripledrug)]*100. Compound potency IP or IC50 was determined by a 4-parameter dose response curve analysis.
# [1] = MT4-GFP cells infected with HIV-1 NL4-3, 0% normal human serum, read-out: WILD TYPE CELL ASSAY Viking IP (0% NHS)
# [2] = MT4-GFP cells infected with HIV-1 NL4-3, 100% normal human serum, read-out: WILD TYPE CELL ASSAY Viking IP (100% NHS)
# [3] = Human immunodeficiency virus 1, NL43, MT4-GFP cells infected with HIV-1 NL4-3, 0% normal human serum, read-out: WILD TYPE CELL ASSAY Viking IP (0% NHS)
# [4] = Human immunodeficiency virus 1, NL43, MT4-GFP cells infected with HIV-1 NL4-3, 100% normal human serum, read-out: WILD TYPE CELL ASSAY Viking IP (100% NHS)
Compound,IC50 [1] [nM],IC50 [2] [nM],IC50 [3] [nM],IC50 [4] [nM]
"CC1(C)C(=O)c2c(O)c(=O)c(C(=O)NCc3ccc(F)cc3F)cn2CC12CCCO2 (single isomer, unassigned) [Compound 1]",0.9,175,,
"CC1(C)C(=O)c2c(O)c(=O)c(C(=O)NCc3ccc(F)cc3F)cn2CC12CCCO2 (single isomer, unassigned) [Compound 2]",1.2,2300,,
"CC1(C)C(=O)c2c(O)c(=O)c(C(=O)NCc3cccc(Cl)c3F)cn2CC12CCCO2 (single isomer, unassigned) [Compound 6]",,,1.8,581
"CC1(C)C(=O)c2c(O)c(=O)c(C(=O)NCc3ccc(F)c(Cl)c3F)cn2CC12CCCO2 (single isomer, unassigned) [Compound 8]",,,1.7,585
"CC1(C)C(=O)c2c(O)c(=O)c(C(=O)NCc3ccc(F)cc3)cn2CC12CCCO2 (single isomer, unassigned) [Compound 10]",,,7,425
"CC1n2cc(C(=O)NCc3ccc(F)cc3F)c(=O)c(O)c2C(=O)C(C)(C)C12CCCO2 (single isomer, unassigned) [Compound 14]",,,2,3300
"CC1COC2(C1)Cn1cc(C(=O)NCc3cccc(Cl)c3F)c(=O)c(O)c1C(=O)C2(C)C (single isomer, unassigned) [Compound 20]",2,1160,,
"CC1COC2(C1)Cn1cc(C(=O)NCc3cccc(Cl)c3F)c(=O)c(O)c1C(=O)C2(C)C (single isomer, unassigned) [Compound 21]",1.3,226,,
"CC1COC2(C1)Cn1cc(C(=O)NCc3cccc(Cl)c3F)c(=O)c(O)c1C(=O)C2(C)C (single isomer, unassigned) [Compound 22]",0.8,1540,,
"CC1COC2(C1)Cn1cc(C(=O)NCc3cccc(Cl)c3F)c(=O)c(O)c1C(=O)C2(C)C (single isomer, unassigned) [Compound 23]",1,717,,
"CC1COC2(C1)Cn1cc(-c3nnc(Cc4ccc(F)cc4F)s3)c(=O)c(O)c1C(=O)C2(C)C (single isomer, unassigned) [Compound 24]",,354,2.9,
"CC1COC2(C1)Cn1cc(-c3nnc(Cc4ccc(F)cc4F)s3)c(=O)c(O)c1C(=O)C2(C)C (single isomer, unassigned) [Compound 25]",3.8,1120,,
CC1(C)C(=O)c2c(O)c(=O)c(C(=O)NCc3ccc(F)cc3F)cn2CC12CCCCO2 (stereo not drawn) [Compound 3],4.2,2540,,
C/C=C1\C(=O)c2c(O)c(=O)c(C(=O)NCc3ccc(F)cc3F)cn2CC12CCOCC2 [Compound 5],3.9,592,,
CC1(C)C(=O)c2c(O)c(=O)c(C(=O)NCc3cccc(Cl)c3F)cn2CC12CCCO2 (stereo not drawn) [Compound 7],,,1.8,> 8000
CC1(C)C(=O)c2c(O)c(=O)c(C(=O)NCc3ccc(F)c(Cl)c3F)cn2CC12CCCO2 (stereo not drawn) [Compound 9],,,1.7,6670
CC1(C)C(=O)c2c(O)c(=O)c(C(=O)NCc3ccc(F)cc3)cn2CC12CCCO2 (stereo not drawn) [Compound 11],,,7.8,4920
CC1(C)C(=O)c2c(O)c(=O)c(-c3nnc(Cc4ccc(F)cc4F)s3)cn2CC12CCCO2 (stereo not drawn) [Compound 12],5,> 8000,,
CC1(C)C(=O)c2c(O)c(=O)c(-c3nnc(Cc4ccc(F)cc4F)s3)cn2CC12CCCO2 (stereo not drawn) [Compound 13],5.4,585,,
CC1n2cc(C(=O)NCc3ccc(F)cc3F)c(=O)c(O)c2C(=O)C(C)(C)C12CCCO2 (stereo not drawn) [Compound 15],,,2.4,149
CC1COC2(C1)Cn1cc(C(=O)NCc3ccc(F)cc3F)c(=O)c(O)c1C(=O)C2(C)C (stereo not drawn) [Compound 16],,634,3.1,
CC1COC2(C1)Cn1cc(C(=O)NCc3ccc(F)cc3F)c(=O)c(O)c1C(=O)C2(C)C (stereo not drawn) [Compound 17],3.1,307,,
CC1COC2(C1)Cn1cc(C(=O)NCc3ccc(F)cc3F)c(=O)c(O)c1C(=O)C2(C)C (stereo not drawn) [Compound 18],2.7,855,,
CC1COC2(C1)Cn1cc(C(=O)NCc3ccc(F)cc3F)c(=O)c(O)c1C(=O)C2(C)C (stereo not drawn) [Compound 19],2.6,453,,
